The data set relates to rodent lifetime carcinogenesis bioassay, tumor incidence TD50. Description: chronic cancer bioassays in animals – CPDB, compiled studies (AID 1745844).
[1] abbreviates: mouse, strain B6AKF1, females, oral dosing, site: any site (literature study), lesion: several types, types named in the paper, dosed 76 weeks, study length 76 weeks.
Where [2] appears, read: mouse, strain B6AKF1, females, oral dosing, site: lung, lesion: adenoma, dosed 76 weeks, study length 76 weeks.
Where [3] appears, read: mouse, strain B6AKF1, males, oral dosing, site: any site (literature study), lesion: several types, types named in the paper, dosed 76 weeks, study length 76 weeks.
[4] abbreviates: mouse, strain B6AKF1, males, oral dosing, site: liver, lesion: hepatoma, dosed 76 weeks, study length 76 weeks.
[5] abbreviates: mouse, strain B6AKF1, males, oral dosing, site: lung, lesion: adenoma, dosed 76 weeks, study length 76 weeks.
Setting [6] is: mouse, strain B6C3F1, females, oral dosing, site: liver, lesion: hepatoma, dosed 76 weeks, study length 76 weeks.
Where [7] appears, read: mouse, strain B6C3F1, males, oral dosing, site: any site (literature study), lesion: several types, types named in the paper, dosed 76 weeks, study length 76 weeks.
[8] abbreviates: mouse, strain B6C3F1, males, oral dosing, site: liver, lesion: hepatoma, dosed 76 weeks, study length 76 weeks.
Where [9] appears, read: mouse, strain B6C3F1, males, oral dosing, site: lung, lesion: adenoma, dosed 76 weeks, study length 76 weeks.

Where “and” joins values, the source holds several entries; their conditions need not be identical. Identical values can stand only once. Calls of active or inactive are those of the source. How the calls were made is not given here.

For `S=C=Nc1ccccc1`, the TD50 (as a rule, the 50% point of the dose-response relation for the toxic effect studied) is 39.4 mg/kg/day (inactive) under setting [1]; 138 mg/kg/day (inactive) (mouse, strain B6AKF1, females, oral dosing, site: liver, lesion: hemangioma, dosed 76 weeks, study length 76 weeks); 40.2 mg/kg/day (inactive) under setting [7]; 128 mg/kg/day (inactive) under setting [8]; 128 mg/kg/day (inactive) under setting [9]. Moreover, the carcinogen call is “negative (inactive)” under setting [2]; “negative (inactive)” under setting [3]; “negative (inactive)” under setting [4]; “negative (inactive)” under setting [5]; “negative (inactive)” (mouse, strain B6C3F1, females, oral dosing, site: any site (literature study), lesion: one or several types, types not named, dosed 76 weeks, study length 76 weeks); “negative (inactive)” under setting [6]. Moreover, the carcinogen call (mouse, strain B6C3F1, females, oral dosing, site: lung, lesion: several types, types named in the paper, dosed 76 weeks, study length 76 weeks) was “negative (inactive)”.
Turning to `CC1CN(/N=C/c2ccc([N+](=O)[O-])o2)C(=O)N1` (stereo not given), the TD50 was 5.59 mg/kg/day (rat, strain Sprague-Dawley, females, in feed, site: any site (literature study), lesion: several types, types named in the paper, dosed 46 weeks, study length 66 weeks) and 5.34 mg/kg/day (rat, strain Sprague-Dawley, females, in feed, site: mammary gland, lesion: adenocarcinoma, dosed 46 weeks, study length 66 weeks).
Consider `Cc1c(O)cc2c(c1C)OC(C)(CCCC(C)CCCC(C)CCCC(C)C)CC2` (stereo not given), for which the TD50 (mouse, strain B6C3F1, males, in feed, site: liver, lesion: hepatocellular carcinoma, dosed 96 weeks, study length 96 weeks) was 5220 mg/kg/day and the TD50 (mouse, strain B6C3F1, males, in feed, site: liver, lesion: several types, types named in the paper, dosed 96 weeks, study length 96 weeks) was 3610 mg/kg/day.
As for `c1ccc2sc(SN3CCOCC3)nc2c1`, the TD50 reads like this: under setting [1], 1310 mg/kg/day (inactive); under setting [4], 20100 mg/kg/day (inactive); (mouse, strain B6C3F1, females, oral dosing, site: any site (literature study), lesion: several types, types named in the paper, dosed 76 weeks, study length 76 weeks) 386 mg/kg/day (inactive); under setting [6], 1230 mg/kg/day (inactive); (mouse, strain B6C3F1, females, oral dosing, site: lung, lesion: adenoma, dosed 76 weeks, study length 76 weeks) 598 mg/kg/day (inactive); under setting [7], 200 mg/kg/day (inactive). Further, the TD50 was 359 mg/kg/day (inactive) under setting [8] and 556 mg/kg/day (inactive) under setting [9]. Moreover, the carcinogen call was “negative (inactive)” (mouse, strain B6AKF1, females, oral dosing, site: liver, lesion: hepatoma, dosed 76 weeks, study length 76 weeks); “negative (inactive)” under setting [2]; “negative (inactive)” under setting [3]; “negative (inactive)” under setting [5].
Turning to `S=P(N1CC1)(N1CC1)N1CC1`, the TD50 reads like this: (mouse, strain B6C3F1, females, i.p., site: all sites, lesion: lymphocytic leukemia + lymphoma, dosed 47 weeks, study length 86 weeks) 0.216 mg/kg/day and 0.21 mg/kg/day; (mouse, strain B6C3F1, females, i.p., site: any site (literature study), lesion: several types, types named in the paper, dosed 47 weeks, study length 86 weeks) 0.0855 mg/kg/day; (mouse, strain B6C3F1, females, i.p., site: liver, lesion: hepatocellular adenoma + hepatocellular carcinoma + neoplastic nodule, dosed 47 weeks, study length 86 weeks) 1.12 mg/kg/day; (mouse, strain B6C3F1, females, i.p., site: lung, lesion: alveolar/bronchiolar adenoma + alveolar/bronchiolar carcinoma, dosed 47 weeks, study length 86 weeks) 0.408 mg/kg/day; (mouse, strain B6C3F1, females, i.p., site: lung, lesion: alveolar/bronchiolar adenoma, dosed 47 weeks, study length 86 weeks) 0.408 mg/kg/day; (mouse, strain B6C3F1, males, i.p., site: all sites, lesion: leukemia + lymphocytic leukemia + lymphoma, dosed 52 weeks, study length 83 weeks) 0.241 mg/kg/day. Also, the TD50 runs as follows: (mouse, strain B6C3F1, males, i.p., site: all sites, lesion: leukemia + lymphoma, dosed 52 weeks, study length 83 weeks) 0.241 mg/kg/day and 0.238 mg/kg/day; (mouse, strain B6C3F1, males, i.p., site: all sites, lesion: lymphocytic leukemia + lymphoma, dosed 52 weeks, study length 83 weeks) 0.265 mg/kg/day and 0.262 mg/kg/day; (mouse, strain B6C3F1, males, i.p., site: all sites, lesion: squamous-cell carcinoma, dosed 52 weeks, study length 83 weeks) 0.102 mg/kg/day; (mouse, strain B6C3F1, males, i.p., site: any site (literature study), lesion: several types, types named in the paper, dosed 52 weeks, study length 83 weeks) 0.069 mg/kg/day; (mouse, strain B6C3F1, males, i.p., site: liver, lesion: hepatocellular adenoma + hepatocellular carcinoma + neoplastic nodule, dosed 52 weeks, study length 83 weeks) 1.12 mg/kg/day; (mouse, strain B6C3F1, males, i.p., site: lung, lesion: alveolar/bronchiolar adenoma + alveolar/bronchiolar carcinoma, dosed 52 weeks, study length 83 weeks) 0.584 mg/kg/day. In addition, the TD50 reads like this: (mouse, strain B6C3F1, males, i.p., site: preputial gland, lesion: squamous-cell carcinoma, dosed 52 weeks, study length 83 weeks) 0.3 mg/kg/day; (mouse, strain B6C3F1, males, i.p., site: skin, lesion: squamous-cell carcinoma, dosed 52 weeks, study length 83 weeks) 0.28 mg/kg/day; (rat, strain BR 46, males, i.v., site: any site (literature study), lesion: benign tumor, dosed 52 weeks, study length 104 weeks) 0.646 mg/kg/day; (rat, strain BR 46, males, i.v., site: any site (literature study), lesion: malignant tumor, dosed 52 weeks, study length 104 weeks) 0.303 mg/kg/day; (rat, strain BR 46, males, i.v., site: any site (literature study), lesion: several types, types named in the paper, dosed 52 weeks, study length 104 weeks) 0.186 mg/kg/day; (rat, strain Sprague-Dawley, females, i.p., site: any site (literature study), lesion: several types, types named in the paper, dosed 36 weeks, study length 81 weeks) 0.0404 mg/kg/day. In addition, the TD50 (rat, strain Sprague-Dawley, females, i.p., site: brain + nasal cavity, lesion: olfactory neuroblastoma + carcinoma, NOS, dosed 36 weeks, study length 81 weeks) is 0.819 mg/kg/day; the TD50 (rat, strain Sprague-Dawley, females, i.p., site: ear canal + skin, lesion: squamous-cell carcinoma, dosed 36 weeks, study length 79 weeks) was 0.214 mg/kg/day; the TD50 (rat, strain Sprague-Dawley, females, i.p., site: ear canal + skin, lesion: squamous-cell carcinoma, dosed 36 weeks, study length 81 weeks) is 0.217 mg/kg/day; the TD50 (rat, strain Sprague-Dawley, females, i.p., site: ear canal, lesion: squamous-cell carcinoma, dosed 36 weeks, study length 79 weeks) was 0.327 mg/kg/day; the TD50 (rat, strain Sprague-Dawley, females, i.p., site: mammary gland, lesion: adenocarcinoma, NOS, dosed 36 weeks, study length 79 weeks) was found to be 0.182 mg/kg/day; the TD50 (rat, strain Sprague-Dawley, females, i.p., site: uterus, lesion: adenocarcinoma, NOS, dosed 36 weeks, study length 79 weeks) came out at 0.236 mg/kg/day. Also, the TD50 is 0.243 mg/kg/day (rat, strain Sprague-Dawley, females, i.p., site: uterus, lesion: adenocarcinoma, NOS, dosed 36 weeks, study length 81 weeks); 0.224 mg/kg/day (rat, strain Sprague-Dawley, males, i.p., site: all sites, lesion: leukemia + lymphoma, dosed 32 weeks, study length 79 weeks); 0.29 mg/kg/day (rat, strain Sprague-Dawley, males, i.p., site: all sites, lesion: leukemia, dosed 32 weeks, study length 79 weeks); 0.312 mg/kg/day (rat, strain Sprague-Dawley, males, i.p., site: all sites, lesion: leukemia, dosed 32 weeks, study length 82 weeks); 0.374 mg/kg/day (rat, strain Sprague-Dawley, males, i.p., site: all sites, lesion: lymphocytic leukemia, dosed 32 weeks, study length 79 weeks); 0.0332 mg/kg/day (rat, strain Sprague-Dawley, males, i.p., site: any site (literature study), lesion: several types, types named in the paper, dosed 32 weeks, study length 82 weeks). For the same compound, the TD50 runs as follows: (rat, strain Sprague-Dawley, males, i.p., site: brain + nasal cavity, lesion: neuroblastoma + olfactory neuroblastoma + carcinoma, NOS, dosed 32 weeks, study length 82 weeks) 0.285 mg/kg/day; (rat, strain Sprague-Dawley, males, i.p., site: ear canal + skin, lesion: squamous-cell carcinoma, dosed 32 weeks, study length 79 weeks) 0.122 mg/kg/day; (rat, strain Sprague-Dawley, males, i.p., site: skin, lesion: squamous-cell carcinoma, dosed 32 weeks, study length 79 weeks) 0.155 mg/kg/day; (rat, strain Sprague-Dawley, males, i.p., site: subcutaneous tissue, lesion: sarcoma, NOS, dosed 32 weeks, study length 79 weeks) 0.22 mg/kg/day.
On to `CC(C)C[C@H]1C(=O)N2CCC[C@H]2[C@]2(O)O[C@](NC(=O)[C@@H]3C=C4c5cccc6[nH]c(Br)c(c56)C[C@H]4N(C)C3)(C(C)C)C(=O)N12`, for which the TD50 is 175 mg/kg/day (inactive) (mouse, strain OF1, females, in feed, site: any site (literature study), lesion: several types, types named in the paper, dosed 74 weeks, study length 74 weeks); 68 mg/kg/day (inactive) (mouse, strain OF1, males, in feed, site: any site (literature study), lesion: several types, types named in the paper, dosed 74 weeks, study length 74 weeks); 308 mg/kg/day (inactive) (mouse, strain OF1, males, in feed, site: liver, lesion: neoplastic nodule, dosed 74 weeks, study length 74 weeks); 618 mg/kg/day (inactive) (mouse, strain OF1, males, in feed, site: lung, lesion: adenoma, dosed 74 weeks, study length 74 weeks); 117 mg/kg/day (rat, strain OFA (Sprague-Dawley derived), females, in feed, site: uterus, lesion: malignant tumor, dosed 100 weeks, study length 100 weeks); 33.7 mg/kg/day (rat, strain OFA (Sprague-Dawley derived), females, in feed, site: uterus, lesion: several types, types named in the paper, dosed 100 weeks, study length 100 weeks). Further, the carcinogen call is “negative (inactive)” (mouse, strain OF1, females, in feed, site: liver, lesion: neoplastic nodule, dosed 74 weeks, study length 74 weeks) and “negative (inactive)” (mouse, strain OF1, females, in feed, site: lung, lesion: adenoma, dosed 74 weeks, study length 74 weeks).

For the origin of these results see PubChem BioAssay AID1745844 (Carcinogenic Potency Database (CPDB), 2022).
